According to paper PMC5613016, “GRL-09510, a Unique P2-Crown-Tetrahydrofuranylurethane -Containing HIV-1 Protease Inhibitor, Maintains Its Favorable Antiviral Activity against Highly-Drug-Resistant HIV-1 Variants in vitro” (Scientific Reports, 2017):
Read-outs that look alike come from different tables or passages of the source.

Columns and labels:
HIV-1NL4-3 [1] = conditions: MT-4 cells, p24 assay, previously reported; and 22; cited from earlier work
HIV-1APV ^R 5μM [2] = system: HIV-1APV ^R 5μM; design: method as in earlier work; conditions: and 22, cited from earlier work; for EC50: MT-4 cells, p24 assay, previously reported, read-out: EC50 HIV-1APVR5M; for fold change in EC50 HIV-1APVR5M: compared to HIV-1NL4-3, previously reported data
[3] = system: HIV-1ERS104pre (wild-type); conditions: PHA-PBMs, p24 assay, previously reported; and 22; read-out: EC50 HIV-1WT/ERS104pre; cited from earlier work
HIV-1MDR/G [4] = system: HIV-1MDR/G; design: method as in earlier work; conditions: and 22, cited from earlier work; for EC50: PHA-PBMs, p24 assay, previously reported; for fold change in EC50 HIV-1MDR/G: compared to HIV-1WT/ERS104pre, previously reported data
HIV-1MDRmix DRV ^R 20P [5] = conditions: cited from earlier work
[6] = system: HIV-192UG029 (subtype A, X4); assay: p24 production inhibition in PHA-PBMC; format: cell-based, HIV-1; conditions: Human immunodeficiency virus 1, read-out: EC50 HIV-192UG029 (subtype A, X4)
Experimental: (§1) The susceptibility of HIV-1LAI or HIV-2ROD to various compounds was determined as previously described[20]–[22]. Briefly, MT-2 cells (10^4/ml) were exposed to 100 TCID50 of HIV-1LAI or HIV-2ROD in the presence or absence of various concentrations of compounds in 96-well plates and were incubated at 37 °C for 7 days. After incubation, 100 μl of the medium was removed from each well, 3-(4,5-dimetylthiazol-2-yl)-2,5-diphenyltetrazolium bromide (MTT) solution (10 μl, 7.5 mg/ml in PBS) was added to each well, followed by incubation at 37 °C for 2 h. […] To determine the sensitivity of clinically isolated HIV-1s to compounds, PHA-PBMC (10^6/ml) were exposed to 50 TCID50 of each HIV-1 and cultured in the presence or absence of various concentrations of compounds in 10-fold serial dilutions in 96-well plates. In determining the drug-susceptibility of certain laboratory HIV-1 strains, MT-4 cells were employed as target cells as previously described[23],[24]. MT-4 cells (10^5/ml) were exposed to 100 TCID50 of drug-resistant HIV-1s in the presence or absence of various concentrations of compounds and were incubated at 37 °C. On day 7, the supernatants were harvested and the amounts of p24 were determined by using a fully-automated chemiluminescent enzyme immunoassay system (Lumipulse f: Fujirebio, Tokyo)[35]–[37]. […] All assays were performed in duplicate, and EC50 shown in this report represent average values of two to four independent experiments. PHA-PBMCs were derived from a single donor in each independent experiment. The research protocols described in the present study were carried out in accordance with relevant guidelines and regulations, and were approved in Ethics Committee for Epidemiological and General Research at the Faculty of Life Sciences, Kumamoto University.

[7] = Cytotoxicity against MT-2 cells (MTT assay); format: cell-based; conditions: human
Experimental: as §1

HIV-1MDRmix DRV ^R 20P [8] = assay: p24 production inhibition in PHA-PBMC; format: cell-based; conditions: for EC50: Human immunodeficiency virus 1, read-out: EC50 HIV-1MDRmix DRV ^R 20P, PHA-PBMC, p24 Gag production
Experimental: as §1

[9] = system: HIV-1ERS104pre (wild-type); assay: p24 production inhibition in PHA-PBMC; format: cell-based; conditions: Human immunodeficiency virus 1, PHA-PBMC, p24 Gag production
Experimental: as §1

HIV-1BaL (subtype B, R5) = assay: p24 production inhibition in PHA-PBMC; format: cell-based; conditions: Human immunodeficiency virus 1, PHA-PBMC, p24 Gag production
Experimental: as §1

HIV-1MDR/G [10] = assay: p24 production inhibition in PHA-PBMC; format: cell-based; conditions: for EC50: Human immunodeficiency virus 1, PHA-PBMC, p24 Gag production
Experimental: as §1

HIV-1MDR/B = assay: p24 production inhibition in PHA-PBMC; format: cell-based
Experimental: as §1

[11] = system: HIV-1ME46 (subtype B, X4/R5); assay: p24 production inhibition in PHA-PBMC; format: cell-based; conditions: Human immunodeficiency virus 1, PHA-PBMC, p24 Gag production
Experimental: as §1

HIV-1MDR/C = assay: p24 production inhibition in PHA-PBMC; format: cell-based
Experimental: as §1

HIV-1MDR/TM = assay: p24 production inhibition in PHA-PBMC; format: cell-based
Experimental: as §1

HIV-2ROD = assay: microbe, parasite or virus in culture; format: cell-based; conditions: for EC50: Human immunodeficiency virus 2, MT2, MT-2 cells, 100 TCID50, MTT assay, read-out: EC50 Against HIV-2ROD
Experimental: as §1

HIV-1LAI = assay: microbe, parasite or virus in culture; format: cell-based; conditions: for EC50: Human immunodeficiency virus 1, MT2, MT-2 cells, 100 TCID50, MTT assay, read-out: EC50 Against HIV-1LAI
Experimental: as §1

HIV-1LPV ^R 5μM = assay: p24 production inhibition in MT-4 cells; format: cell-based; conditions: for EC50: Human immunodeficiency virus 1, MT4, read-out: EC50 HIV-1LPV ^R 5μM, MT-4 cells, p24 Gag production
Experimental: as §1

HIV-1_9510 ^R 36P = assay: p24 production inhibition in MT-4 cells; format: cell-based; conditions: for EC50: Human immunodeficiency virus 1, MT4, read-out: EC50 HIV-19510RP36
Experimental: as §1

HIV-1ATV ^R 5μM = assay: p24 production inhibition in MT-4 cells; format: cell-based; conditions: for EC50: Human immunodeficiency virus 1, MT4, read-out: EC50 HIV-1ATV ^R 5μM, MT-4 cells, p24 Gag production
Experimental: as §1

HIV-1APV ^R 5μM [12] = assay: p24 production inhibition in MT-4 cells; format: cell-based; conditions: for EC50: Human immunodeficiency virus 1, MT4, read-out: EC50 HIV-1APV ^R 5μM, MT-4 cells, p24 Gag production
Experimental: as §1

HIV-1NL4-3 [13] = assay: p24 production inhibition in MT-4 cells; format: cell-based; conditions: Human immunodeficiency virus 1, MT4, MT-4 cells, p24 Gag production, Table 3
Experimental: as §1

[14] = compared to EC50 for HIV-1ERS104pre
[15] = Human immunodeficiency virus 1, PHA-PBMC, p24 Gag production
[16] = number in parentheses, compared to HIV-1NL4-3

Structure (SMILES) | EC50 (HIV-1NL4-3 [1]) [nM] | EC50 (HIV-1APV ^R 5μM [2]) [nM] | fold change in EC50 HIV-1APVR5M (HIV-1APV ^R 5μM [2]) | EC50 [3] [nM] | EC50 (HIV-1MDR/G [4]) [nM] | fold change in EC50 HIV-1MDR/G (HIV-1MDR/G [4]) | EC50 [6] [nM] | EC50 (HIV-1MDRmix DRV ^R 20P [8]) [nM] | EC50 [9] [nM] | EC50 (HIV-1BaL (subtype B, R5)) [nM] | EC50 (HIV-1MDR/G [10]) [nM] | EC50 [11] [nM] | EC50 (HIV-2ROD) [nM] | EC50 (HIV-1LAI) [nM] | EC50 (HIV-1LPV ^R 5μM) [nM] | EC50 (HIV-1_9510 ^R 36P) [nM] | EC50 (HIV-1ATV ^R 5μM) [nM] | EC50 (HIV-1APV ^R 5μM [12]) [nM] | EC50 (HIV-1NL4-3 [13]) [nM] | other results
COc1ccc(S(=O)(=O)N(CC(C)C)C[C@@H](O)[C@H](Cc2ccccc2)NC(=O)OC2CO[C@H]3OCC(F)(F)[C@@H]23)cc1 (some centres unmarked) [GRL-04810] | 0.5 ± 0.5 | 430 ± 20 | 860 | 2.3 ± 0.1 | 4 ± 1 | 2 |  |  |  |  |  |  |  |  |  |  |  |  |  | 
COc1ccc(S(=O)(=O)N(CC(C)C)C[C@@H](O)[C@H](Cc2ccccc2)NC(=O)O[C@H]2CO[C@H]3O[C@@H]4OCC[C@@H]4[C@H]32)cc1 [GRL-0519] | 0.5 ± 0.1 | 38 ± 0.9 | 76 | 0.6 ± 0.2 | 2.6 ± 1.3 | 4 |  |  |  |  |  |  |  |  |  |  |  |  |  | EC50 (HIV-1MDRmix DRV ^R 20P [5]; PHA-PBMs, p24 assay, previously reported, read-out: EC50 HIV-1MDRmixDRVR20P): 30 ± 9.8 nM; fold change in EC50 HIV-1MDRmixDRVR20P (HIV-1MDRmix DRV ^R 20P [5]; compared to HIV-1WT/ERS104pre, previously reported data): 50
COC(=O)N[C@H](C(=O)N[C@@H](Cc1ccccc1)[C@@H](O)CN(Cc1ccc(-c2ccccn2)cc1)NC(=O)[C@@H](NC(=O)OC)C(C)(C)C)C(C)(C)C [ATV, Atazanavir] |  |  |  |  |  |  | 6 ± 3 | > 1000 | 3.1 ± 0.6 | 2 ± 1 | 30 ± 10 | 4.2 ± 0.5 | 17 ± 3 | 4 ± 1 | 38 ± 1 | 24 ± 1 | > 1000 | 371 ± 8 | 4.3 ± 0.9 | CC50 [7]: 32400 ± 1000 nM; fold change of EC50 HIV-1MDRmix DRV ^R 20P (HIV-1MDRmix DRV ^R 20P [8]; [14]): > 323; fold change of EC50 HIV-1MDR/G (HIV-1MDR/G [10]; [14]): 10; EC50 (HIV-1MDR/B; [15]): 360 ± 160 nM; fold change of EC50 HIV-1MDR/B (HIV-1MDR/B; [14]): 116; EC50 (HIV-1MDR/C; [15]): 50 ± 20 nM; fold change of EC50 HIV-1MDR/C (HIV-1MDR/C; [14]): 16; EC50 (HIV-1MDR/TM; [15]): 71 ± 8 nM; fold change of EC50 HIV-1MDR/TM (HIV-1MDR/TM; [14]): 23; Selectivity Index (CC50/EC50) MT2/HIV-2ROD (HIV-2ROD; ratio of CC50 to EC50 against HIV-2ROD): 1,906; Selectivity Index (CC50/EC50) MT2/HIV-1LAI (HIV-1LAI; ratio of CC50 to EC50 against HIV-1LAI): 8,100; fold change of EC50 HIV-1LPV ^R 5μM (HIV-1LPV ^R 5μM; [16]): 9; fold change of EC50 HIV-19510RP36 (HIV-1_9510 ^R 36P; compared to EC50 for HIV-1NL4-3, Supplemental Table 3): 6; fold change of EC50 HIV-1ATV ^R 5μM (HIV-1ATV ^R 5μM; [16]): > 233; fold change of EC50 HIV-1APV ^R 5μM (HIV-1APV ^R 5μM [12]; [16]): 86
CC(C)CN(C[C@@H](O)[C@H](Cc1ccccc1)NC(=O)O[C@H]1CO[C@H]2OCC[C@H]21)S(=O)(=O)c1ccc(N)cc1 [DRV, Darunavir] |  |  |  |  |  |  | 5.5 ± 0.1 | 300 ± 60 | 4.4 ± 0.9 | 1.8 ± 0.1 | 20 ± 9 | 2.3 ± 0.4 | 14 ± 7 | 5 ± 2 | 34 ± 5 | 41 ± 1 | 24 ± 60 | 410 ± 10 | 4.5 ± 0.4 | CC50 at 7 days [7]: 101000 ± 8800 nM
